Test results published in patent US20150335657A1, “Methods for Modulating Sirtuin Enzymes” (The Trustees of Princeton University, priority 2014, published 2015).

What was measured:
[1] = biological target: T1, SIRT1 (Homo sapiens, UniProt Q96EB6); test: Sirtuin deacetylase enzyme activity assay (Cayman Chemical), compound screen; format: biochemical; settings: compound at 50 μM; Z-score of change in fluorescent signal; + increase, − decrease
T1 construct: purchased Cayman Chemical
T1 sequence (Q96EB6 1-747): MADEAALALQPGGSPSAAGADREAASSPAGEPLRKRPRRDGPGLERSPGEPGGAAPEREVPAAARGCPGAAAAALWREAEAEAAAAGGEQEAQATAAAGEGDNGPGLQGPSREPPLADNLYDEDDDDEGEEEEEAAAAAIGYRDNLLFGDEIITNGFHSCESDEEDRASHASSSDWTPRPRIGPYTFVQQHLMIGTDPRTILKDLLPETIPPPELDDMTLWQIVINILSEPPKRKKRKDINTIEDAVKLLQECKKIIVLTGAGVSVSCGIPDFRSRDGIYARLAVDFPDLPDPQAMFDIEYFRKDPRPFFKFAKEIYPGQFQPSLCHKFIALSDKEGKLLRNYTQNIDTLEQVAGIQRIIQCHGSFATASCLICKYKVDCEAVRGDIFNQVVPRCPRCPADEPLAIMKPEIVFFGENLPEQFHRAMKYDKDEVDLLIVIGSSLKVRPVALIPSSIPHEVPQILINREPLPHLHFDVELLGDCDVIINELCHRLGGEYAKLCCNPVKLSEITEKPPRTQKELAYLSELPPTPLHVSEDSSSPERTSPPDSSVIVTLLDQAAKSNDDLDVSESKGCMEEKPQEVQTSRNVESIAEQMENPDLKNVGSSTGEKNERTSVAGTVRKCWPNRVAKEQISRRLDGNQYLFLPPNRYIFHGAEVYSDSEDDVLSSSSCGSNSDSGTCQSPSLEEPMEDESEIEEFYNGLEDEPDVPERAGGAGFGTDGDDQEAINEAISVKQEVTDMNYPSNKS
From the text: (§1) Sirtuins have been identified as innate viral restriction factors and it has been previously shown that drugs that modulate the activity of these enzymes block the production of multiple viruses in culture (see, e.g., WO 2012/106509). Sirtuins are NAD-dependent enzymes that regulate the activity of target proteins by post-translational modifications and thereby control key cellular events (see, e.g., Haigis and Sinclair (2010) Ann Rev Pathol Mech Dis 5:253-95). SIRT1, SIRT2, SIRT3 and SIRT6 have shown a detectable deacetylase activity in well-established biochemical assays that utilize recombinant SIRT1, SIRT2, SIRT3, and SIRT6 enzymes and fluorophore-conjugated acetyl-peptides. As described in the Examples below, the deacetylase activity of these sirtuins were used as a surrogate to identify compounds having broad-range antiviral activity.
(§2) A publically disclosed, small molecule library consisting of approximately 13,000 compounds was screened using a commercially available (Cayman Chemical) enzyme activity assay. Deacetylase activity of sirtuins SIRT1, SIRT2, SIRT3, and SIRT6 was used as a surrogate to identify compounds with the potential for having broad-range antiviral activity. The compounds were tested at a single concentration (50 μM) in microtiter plates and their activity against the four sirtuins was recorded as a change in fluorescent signal intensity. […] Activation of sirtuin activity generated positive Z-scores and inhibition of sirtuin activity produced negative Z-scores.

[2] = biological target: T2, SIRT2 (Homo sapiens, UniProt Q8IXJ6); test: as above; format: biochemical; settings: compound at 50 μM; Z-score of change in fluorescent signal; + increase, − decrease
T2 construct: purchased Cayman Chemical
T2 sequence (Q8IXJ6 1-389): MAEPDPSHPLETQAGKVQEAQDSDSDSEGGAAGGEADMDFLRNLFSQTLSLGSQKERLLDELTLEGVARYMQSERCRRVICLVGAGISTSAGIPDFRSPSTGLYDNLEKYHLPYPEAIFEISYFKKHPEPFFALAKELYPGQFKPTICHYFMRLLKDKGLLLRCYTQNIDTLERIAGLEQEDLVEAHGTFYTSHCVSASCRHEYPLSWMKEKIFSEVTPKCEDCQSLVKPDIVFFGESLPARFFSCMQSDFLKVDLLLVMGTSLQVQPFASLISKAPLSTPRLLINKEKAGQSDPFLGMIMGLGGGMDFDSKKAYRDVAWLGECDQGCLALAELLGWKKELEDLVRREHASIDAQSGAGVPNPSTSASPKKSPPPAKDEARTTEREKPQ
From the text: as §1, §2

[3] = biological target: T3, SIRT3 (Homo sapiens, UniProt Q9NTG7); test: as above; format: biochemical; settings: compound at 50 μM; Z-score of change in fluorescent signal; + increase, − decrease
T3 construct: purchased Cayman Chemical
T3 sequence (Q9NTG7 1-399): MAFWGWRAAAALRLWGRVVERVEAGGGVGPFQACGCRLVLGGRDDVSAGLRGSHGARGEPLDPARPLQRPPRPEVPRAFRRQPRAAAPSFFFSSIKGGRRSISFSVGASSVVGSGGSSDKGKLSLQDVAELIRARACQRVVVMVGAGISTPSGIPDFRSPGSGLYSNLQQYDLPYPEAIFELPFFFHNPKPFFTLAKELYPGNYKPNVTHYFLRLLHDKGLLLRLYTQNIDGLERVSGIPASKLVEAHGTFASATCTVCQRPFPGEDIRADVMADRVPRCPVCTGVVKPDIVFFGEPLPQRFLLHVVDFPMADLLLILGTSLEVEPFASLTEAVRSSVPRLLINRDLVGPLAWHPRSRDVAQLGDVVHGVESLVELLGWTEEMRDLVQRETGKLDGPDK
From the text: as §1, §2

[4] = biological target: T4, SIRT6 (Homo sapiens, UniProt Q8N6T7); test: as above; format: biochemical; settings: compound at 50 μM; Z-score of change in fluorescent signal; + increase, − decrease
T4 construct: purchased Cayman Chemical
T4 sequence (Q8N6T7 whole entry): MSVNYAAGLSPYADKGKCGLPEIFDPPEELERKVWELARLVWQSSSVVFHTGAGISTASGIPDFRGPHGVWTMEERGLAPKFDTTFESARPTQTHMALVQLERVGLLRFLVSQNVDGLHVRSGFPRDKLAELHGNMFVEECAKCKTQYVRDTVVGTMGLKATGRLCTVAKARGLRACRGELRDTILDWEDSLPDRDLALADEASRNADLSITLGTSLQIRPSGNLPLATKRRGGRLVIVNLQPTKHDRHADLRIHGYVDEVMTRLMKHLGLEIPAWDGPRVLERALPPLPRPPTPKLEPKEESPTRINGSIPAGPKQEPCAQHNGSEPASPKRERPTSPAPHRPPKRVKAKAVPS
From the text: as §1, §2

[5] = tested on: human cytomegalovirus (HCMV) AD169 strain; test: Antiviral activity against HCMV in MRC5 fibroblasts (virus yield, fluorescent focus assay); format: cell-based; settings: Human betaherpesvirus 5, HCMV AD169, 1 infectious unit/cell, treated 2 h after infection, virus in medium at 96 h
[6] = Tetrazolium-based cell viability assay (cytotoxicity); settings: human

Structure (SMILES)	SIRT1 (change in sirtuin deacetylase activity, Z-score class) [1]	SIRT2 (change in sirtuin deacetylase activity, Z-score class) [2]	SIRT3 (change in sirtuin deacetylase activity, Z-score class) [3]	SIRT6 (change in sirtuin deacetylase activity, Z-score class) [4]	IC50 [5] [µM]	IC90 [5] [µM]	CC50 at 96 h [6] [µM]
CC(c1cnc2ccccc2c1)C(F)C1N(Cc2ccccc2)C(=O)c2cccnc2N1C (stereo not drawn)	+++ (Z-score ≧ 3 = +++)	+++ (Z-score ≧ 3 = +++)	+++ (Z-score ≧ 3 = +++)	+++ (Z-score ≧ 3 = +++)	1.74	16.1	> 50
CC(c1ccccc1Cl)C1CN(C2CCC(O)CC2)S(=O)(=O)c2c(F)cccc2O1 (stereo not drawn)	na (−2 ≦ Z-score < 2 = no activity (na))	na (−2 ≦ Z-score < 2 = no activity (na))	na (−2 ≦ Z-score < 2 = no activity (na))	+++ (Z-score ≧ 3 = +++)	2.33	31.3	> 50
CC(c1ccc2nccnc2c1)c1cnc(N2CCc3ccccc3C2)s1 (stereo not drawn)	−− (−3 < Z-score ≦ −2 = −−)	−− (−3 < Z-score ≦ −2 = −−)	na (−2 ≦ Z-score < 2 = no activity (na))	na (−2 ≦ Z-score < 2 = no activity (na))	4.58	5.95	> 50
CC(c1cnc2ccccc2c1)C(F)CNc1cnc2ccccc2c1 (stereo not drawn)	na (−2 ≦ Z-score < 2 = no activity (na))	na (−2 ≦ Z-score < 2 = no activity (na))	na (−2 ≦ Z-score < 2 = no activity (na))	+++ (Z-score ≧ 3 = +++)	6.89	17.6	> 50
CCOc1cc(C)n(C(CNc2cnc3ccccc3c2)C(C)c2cccnc2C)n1 (stereo not drawn)	++ (2 ≦ Z-score < 3 = ++)	++ (2 ≦ Z-score < 3 = ++)	+++ (Z-score ≧ 3 = +++)	+++ (Z-score ≧ 3 = +++)	8.26	33.9	> 50
Cc1cc(-c2ccccc2)nn1C1CN(Cc2cccc(C(F)(F)F)c2)C(=O)C1C(C)C (stereo not drawn)	++ (2 ≦ Z-score < 3 = ++)	na (−2 ≦ Z-score < 2 = no activity (na))	na (−2 ≦ Z-score < 2 = no activity (na))	++ (2 ≦ Z-score < 3 = ++)	8.43	18.8	25 to 50
CCOc1cc(C(C)C)n(C(CNc2cnc3ccccc3c2)C(C)c2cccnc2C)n1 (stereo not drawn)	+++ (Z-score ≧ 3 = +++)	na (−2 ≦ Z-score < 2 = no activity (na))	+++ (Z-score ≧ 3 = +++)	+++ (Z-score ≧ 3 = +++)	9.32	41.3	> 50
CC(c1ccncc1)C(O)Cn1cc(-c2cc(Cl)cnc2N)nn1 (stereo not drawn)	+++ (Z-score ≧ 3 = +++)	na (−2 ≦ Z-score < 2 = no activity (na))	++ (2 ≦ Z-score < 3 = ++)	+++ (Z-score ≧ 3 = +++)	9.71	33.8	> 50
CCCN1CC(C(C)c2ccccc2OC)N(c2cccnc2)C1=O (stereo not drawn)	na (−2 ≦ Z-score < 2 = no activity (na))	na (−2 ≦ Z-score < 2 = no activity (na))	na (−2 ≦ Z-score < 2 = no activity (na))	+++ (Z-score ≧ 3 = +++)	9.91	32.2	> 50
CNC(=O)c1cccc(CN(CCC(C)C(C)C)S(=O)(=O)c2c(C)noc2C)c1 (stereo not drawn)	na (−2 ≦ Z-score < 2 = no activity (na))	na (−2 ≦ Z-score < 2 = no activity (na))	na (−2 ≦ Z-score < 2 = no activity (na))	+++ (Z-score ≧ 3 = +++)	10.2	32.8	25 to 50
Cc1nn(C2CN(CCn3ccnc3)C(=O)C2c2ccccc2)c(C)c1C (stereo not drawn)	−−− (Z-score ≦ −3 = −−−)	−−− (Z-score ≦ −3 = −−−)	−−− (Z-score ≦ −3 = −−−)	na (−2 ≦ Z-score < 2 = no activity (na))	11	38.5	> 50
CNC(=O)c1cccc(CN(CCC(C)C(C)C)S(=O)(=O)c2cn(C)cn2)c1 (stereo not drawn)	na (−2 ≦ Z-score < 2 = no activity (na))	++ (2 ≦ Z-score < 3 = ++)	na (−2 ≦ Z-score < 2 = no activity (na))	na (−2 ≦ Z-score < 2 = no activity (na))	13.4	41.8	> 50
